Patent publication US11377442B2, “Small molecule agonists and antagonists of NR2F6 activity” (ZANDER THERAPEUTICS, INC., priority 2016, dated 2022)
Where two headings read alike, the source gives them in different places.

How the values were obtained:
Format in all cases: cell-based
NR2F6 = target: T1, NR2F6 (Homo sapiens, UniProt P10588); test: NR2F6 agonist screening, Firefly signal cmpd/DMSO
T1 construct: expressed in transfected cells; also transient transfection
T1 sequence (P10588 1-404): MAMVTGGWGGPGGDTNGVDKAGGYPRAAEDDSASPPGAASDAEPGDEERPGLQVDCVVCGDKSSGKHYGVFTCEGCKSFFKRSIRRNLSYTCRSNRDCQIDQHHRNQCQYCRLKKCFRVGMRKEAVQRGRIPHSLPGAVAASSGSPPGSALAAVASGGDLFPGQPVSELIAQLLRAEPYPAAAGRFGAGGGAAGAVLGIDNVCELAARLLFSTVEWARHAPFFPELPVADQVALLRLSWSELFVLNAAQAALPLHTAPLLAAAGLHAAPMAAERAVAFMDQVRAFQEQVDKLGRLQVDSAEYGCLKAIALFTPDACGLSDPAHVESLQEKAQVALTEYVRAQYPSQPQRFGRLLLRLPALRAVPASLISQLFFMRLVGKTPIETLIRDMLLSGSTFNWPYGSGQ

ERα [1] = target: T2, ERα (Homo sapiens, UniProt P03372); test: Counterscreening, Firefly signal with ERα transient transfection (Firefly_ERa); settings: 10 uM
T2 construct: expressed in transfected cells
T2 sequence (P03372 1-595): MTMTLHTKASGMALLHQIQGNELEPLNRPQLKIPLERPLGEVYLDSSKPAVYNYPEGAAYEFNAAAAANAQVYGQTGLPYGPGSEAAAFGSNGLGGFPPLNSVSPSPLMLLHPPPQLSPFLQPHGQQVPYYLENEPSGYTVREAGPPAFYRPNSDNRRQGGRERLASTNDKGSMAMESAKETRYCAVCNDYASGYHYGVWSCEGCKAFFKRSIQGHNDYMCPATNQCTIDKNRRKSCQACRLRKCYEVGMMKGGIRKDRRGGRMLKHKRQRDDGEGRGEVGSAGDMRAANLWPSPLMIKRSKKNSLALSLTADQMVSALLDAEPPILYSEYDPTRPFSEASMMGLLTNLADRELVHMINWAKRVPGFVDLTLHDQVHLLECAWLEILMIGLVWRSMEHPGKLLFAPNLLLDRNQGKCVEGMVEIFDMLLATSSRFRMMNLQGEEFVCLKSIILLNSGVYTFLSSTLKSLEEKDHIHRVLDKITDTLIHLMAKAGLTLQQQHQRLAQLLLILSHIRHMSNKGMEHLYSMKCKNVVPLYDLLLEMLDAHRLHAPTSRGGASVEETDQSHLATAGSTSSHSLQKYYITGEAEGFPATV
Procedure: The methodology for screening candidate compounds as NR2F6 agonists was as follows: For primary screening, hit criteria was ACT %>DMSO control+5*SD (DSO control) at 10 μM, or any compound with S/B>2. For rescreening, hit criteria was ACT %>DMSO control+3*SD (DSO control) in each replicate at 10 μM. For counterscreening, hit criteria was mean ACT<DMSO control+3*SD (DMSO control) with ERα transient transfection in duplicate at 10 μM.

ERα [2] = target: T2, ERα; test: as above
Renilla = Renilla signal in NR2F6 agonist screening, cmpd/DMSO; settings: for fold induction at 2 µM / fold induction at 10 µM / fold induction at 40 µM: Renilla, read-out: Renilla F4, cmpd/DMSO (mean)
Renilla_ERa = test: Renilla signal in ERα counterscreen (Renilla_ERa); settings: for fold induction at 2 µM / fold induction at 10 µM / fold induction at 40 µM: read-out: Renilla ERalpha transient, cmpd/DMSO (mean)

Compound	Firefly F4, cmpd/DMSO (mean) (NR2F6; Table 15, 2 uM)	Firefly F4, cmpd/DMSO (mean) (NR2F6; Table 15, 10 uM)	Firefly F4, cmpd/DMSO (mean) (NR2F6; Table 15, 40 uM)	Firefly ERalpha transient, cmpd/DMSO (mean) (ERα [1]; Table 15)	Firefly ERalpha transient, cmpd/DMSO (mean) (ERα [2]; Table 15, 2 uM)	Firefly ERalpha transient, cmpd/DMSO (mean) (ERα [2]; Table 15, 40 uM)	Firefly F4, cmpd/DMSO (mean) (NR2F6; 2 uM, clone F4)	Firefly F4, cmpd/DMSO (mean) (NR2F6; 10 uM, clone F4)	Firefly F4, cmpd/DMSO (mean) (NR2F6; 40 uM, clone F4)	Firefly ERalpha transient, cmpd/DMSO (mean) (ERα [1])	Firefly ERalpha transient, cmpd/DMSO (mean) (ERα [2]; 2 uM)	Firefly ERalpha transient, cmpd/DMSO (mean) (ERα [2]; 40 uM)	fold induction at 2 µM (Renilla; Table 15, 2 uM)	fold induction at 10 µM (Renilla; Table 15, 10 uM)	fold induction at 40 µM (Renilla; Table 15, 40 uM)	fold induction at 2 µM (Renilla_ERa; Table 15, 2 uM)	fold induction at 10 µM (Renilla_ERa; Table 15, 10 uM)	fold induction at 40 µM (Renilla_ERa; Table 15, 40 uM)	further results
COc1nc(NCCC2=CCCCC2)nc(N2CC3CC(C2)c2cccc(=O)n2C3)n1 (stereo not drawn) [Compound 38]	–	–	–	–	–	–	1.2	0.8	0.7	0.9	0.8	0.5	–	–	–	–	–	–	fold induction at 2 µM (Renilla; 2 uM, clone F4): 1.1; fold induction at 10 µM (Renilla; 10 uM, clone F4): 1.1; fold induction at 40 µM (Renilla; 40 uM, clone F4): 1.3; fold induction at 2 µM (Renilla_ERa; 2 uM): 1.2; fold induction at 10 µM (Renilla_ERa; 10 uM): 1.1; fold induction at 40 µM (Renilla_ERa; 40 uM): 1.1
CC(C)Nc1nc(N2CCCC2)nc(N2CCn3c(cccc3=O)C2)n1 [Compound 35]	–	–	–	–	–	–	1.1	1.0	0.8	0.9	1.0	1.3	–	–	–	–	–	–	Renilla F4, cmpd/DMSO (mean) (Renilla; 2 uM, clone F4): 1.1; Renilla F4, cmpd/DMSO (mean) (Renilla; 10 uM, clone F4): 0.9; Renilla F4, cmpd/DMSO (mean) (Renilla; 40 uM, clone F4): 0.9; Renilla ERalpha transient, cmpd/DMSO (mean) (Renilla_ERa; 2 uM): 1.0; Renilla ERalpha transient, cmpd/DMSO (mean) (Renilla_ERa; 10 uM): 1.0; Renilla ERalpha transient, cmpd/DMSO (mean) (Renilla_ERa; 40 uM): 1.1

Second part, led by results:

Firefly F4, cmpd/DMSO (mean) (NR2F6; Table 15, 2 uM)	Firefly F4, cmpd/DMSO (mean) (NR2F6; Table 15, 10 uM)	Firefly F4, cmpd/DMSO (mean) (NR2F6; Table 15, 40 uM)	Firefly ERalpha transient, cmpd/DMSO (mean) (ERα [1]; Table 15)	Firefly ERalpha transient, cmpd/DMSO (mean) (ERα [2]; Table 15, 2 uM)	Firefly ERalpha transient, cmpd/DMSO (mean) (ERα [2]; Table 15, 40 uM)	Compound	Firefly F4, cmpd/DMSO (mean) (NR2F6; 2 uM, clone F4)	Firefly F4, cmpd/DMSO (mean) (NR2F6; 10 uM, clone F4)	Firefly F4, cmpd/DMSO (mean) (NR2F6; 40 uM, clone F4)	Firefly ERalpha transient, cmpd/DMSO (mean) (ERα [1])	Firefly ERalpha transient, cmpd/DMSO (mean) (ERα [2]; 2 uM)	Firefly ERalpha transient, cmpd/DMSO (mean) (ERα [2]; 40 uM)	fold induction at 2 µM (Renilla; Table 15, 2 uM)	fold induction at 10 µM (Renilla; Table 15, 10 uM)	fold induction at 40 µM (Renilla; Table 15, 40 uM)	fold induction at 2 µM (Renilla_ERa; Table 15, 2 uM)	fold induction at 10 µM (Renilla_ERa; Table 15, 10 uM)	fold induction at 40 µM (Renilla_ERa; Table 15, 40 uM)	further results
3.5	1.2	0.5	1.6	2.1	0.6	CCOC(=O)c1cnc2c(C)cc(C)cc2c1NCCCN1CCCCC1 [Compound Z11]	–	–	–	–	–	–	–	–	–	–	–	–	–
1.1	1.0	1.0	1.1	0.9	1.5	CCOC(=O)c1cnc2c(C)cc(C)cc2c1NCCCO [Compound Z70]	–	–	–	–	–	–	0.8	1.3	1.3	1.1	1	1.2	–
1.4	1.5	1.6	2.4	1.5	1.1	CCOC(=O)c1cnc2c(C)cc(C)cc2c1N1CCC(O)CC1 [Compound Z78]	–	–	–	–	–	–	1.1	1	0.8	1	0.9	0.6	–
5.8	1.6	0.7	1.5	4.2	0.5	CCOC(=O)c1cnc2c(C)cc(C)cc2c1NCCCN1CCCCC1 [Compound Z10]	–	–	–	–	–	–	–	–	–	–	–	–	–
